Numbered stars: 1 amine (or outer) side, 2 acyl side, 3 side chain; on linkers, the order of the positions; unused ones are H or OH. Square brackets hold non-standard residues; d marks the D form. Suc = O=C(CCC(=O)[*:2])[*:1]; NMeV = CN[C@H](C(=O)O)C(C)C; βAla = NCCC(=O)O
Columns and labels:
[1] = tested on: Tilapia tac3ra and tac3rb; experiment: CRE-luciferase reporter assay in COS-7 cells transfected with tilapia tac3 receptor; format: cell-based; details: for effect of antagonist alone on luciferase activity (CRE-Luc): no ligand; for inhibition of luciferase activity, antagonist with native ligands: different concentrations added concomitantly with 0.1 nM NKB or NKF
Description: There are two signal transduction pathways, one is relayed trough cAMP/PKA (protein kinase A), and the second is trough Ca2+/PKC. The PKA pathway is activated by CRE (cAMP response element) and the PKC through SRE ([…] response element).
In order to differentiate between the PKC and PKA signal transduction pathways, a sensitive luciferase (LUC) reporter gene assay was utilized by using the LUC transcriptionally regulated by a serum response element (SRE; Invitrogen) or cyclic AMP (cAMP) response element (CRE; Invitrogen). Tilapia tac3ra and tac3rb (GenBank accession numbers KF471674 and KF471675, respectively) or zebrafish tac3ra and tac3rb (JF317292, and JF317293, respectively) were cloned in pcDNA3.1 expression vector (Zeo-; Invitrogen) under the control of the CMV promoter.
Transient transfection, cell procedures and stimulation protocols were generally according to (Levavi-Sivan et al., 2005, Mol Cell Endocrinol 236:17-30; Biran et al., 2008, ibid, Biran et al., 2012, ibid, Biran et al., 2014 ibid). Briefly, COS-7 cells were grown in DMEM supplemented with 10% FBS, 1% glutamine, 100 U/ml penicillin, and […] streptomycin (Biological Industries) under 5% CO2 until confluent. Cotransfection of either pc-tac3ra, pc-tac3rb (at 3 μg/plate), a reporter plasmid (at 2 μg/plate), and pCM.
Transfection was carried out with FuGENE 6.0 reagent (Roche). The cells were serum starved for 36 h, stimulated with vehicle or various concentrations of either human NKB, tilapia NKB, tilapia NKF, zebrafish NKBa, NKBb or zebrafish NKF for 6 h, and then harvested and analyzed.
Lysates prepared from the harvested cells were assayed for both luciferase activity and β-galactosidase activity, which was used as an internal standard to normalize the luciferase activity directed by the test plasmid, as described previously. Transfection experiments were performed in triplicate with three independently isolated sets.
The concentrations of ligand used were from 1 nM to 1 μM. Treatments were performed in quadruplicate in three independent experiments.
Each antagonist was added at different concentrations with a constant concentration of the wild-type NKB or NKF, at a dose of the ligand (10^−8M) that gave a response close to the ED50. The results were analyzed by Prism software, according to a non-linear regression one-site competition curve.
The effect of NKB antagonists was tested in tilapia when each antagonist was added at different concentration concomitantly with NKB at 10^−8 M ([…]). Tilapia NKB increased the luciferase activity by 1.8 fold. The various antagonists reduced this response by approximately 60% (FIG. 1A). Similar results were obtained using the SRE response (FIG. 1B). […]

Adult male Tilapia [2] = experiment: In vivo ip injection of adult male tilapia: testis histology, plasma 11KT; details: versus control; for increase of plasma 11KT levels: 500 μg/kg BW ip every 48 h, 0 to 12 days
Method: Adult male Tilapia (BW 90 g) were injected ip with saline and 25% DMSO, SB2222000, or the NKB antagonists Ant-4 (500 μg/kg BW every 48 h for 2 weeks, […]). The fish were bled from the caudal blood vessels into heparinized syringes every 2 days after injection. At days 7 and 14 five fish from each group were bled, striped for sperm volume and gonads were taken for Histology. Plasma was analyzed for LH, FSH and 11KT. Blood samples were collected from the caudal vasculature and centrifuged (3000 rpm for 20 minutes at 4° C.) to obtain plasma samples, which were stored at −20° C. until assayed, ELISAs were performed according to (Aizen et al., 2007, Gen Comp Endocrinol, vol. 153, pp 323-332) for FSH and LH and according to Hurvitz et al., 2005 (Gen Comp Endocrinol 140:61-73) for 11KT 1-ketotestosterone, the main androgen in fish which is involved in spermatogenesis). FIG. 6 represents histological observations of gonads from testes of treated fish versus control fish. Fish testes are organized in cysts. […] From right to left: semen from fish injected with SB222200; semen from control fish; semen from fish injected with NKB-antagonist #4. 11KT is the main androgen in fish and is involved in spermatogenesis.

Adult male Tilapia [3] = experiment: In vivo growth of injected adult male tilapia; details: 500 μg/kg BW ip every 48 h for 2 weeks; day 21, seven days after end of treatment
Method: Adult male tilapia (BW 60 g) were injected ip with saline and 25% DMSO, SB2222000, or NKB antagonists Ant-6 (500 μg/kg BW every 48 h for 2 weeks, n=25 fish per group). Fish were weighed every 7 days.

[4] = tested on: gonadotropin release in tilapia; experiment: In vivo gonadotropin (FSH, LH) release in sexually mature tilapia females; details: 10, 100 or 500 μg/kg body weight injected; 1, 2, 4, 8 h; starting 1 hour after injection
Method: SB222200 was further tested in vivo for its NKB antagonistic activity on gonadotropin release in tilapia. Sexually mature tilapia females (0.62±0.22%; n=10/treatment) were injected with different doses of the NKB non-peptide antagonist SB222200 (10, 100 or 500 μg/kg body weight) at time 0. 1, 2, 4 and 8 hours after the injection the fish were bled from their caudal vasculature. The levels of the gonadotropins FSH and LH were determined using specific ELISA according to Aizen et al., 2007 (Aizen et al., 2007, Gen Comp Endocrinol, vol. 153, pp 323-332).

Salmon tac3 receptor = experiment: CRE-Luc reporter assay in COS-7 cells transfected with salmon tac3r; format: cell-based; details: with wild-type NKB at 10^-8 M
Method: Similar to the in-vitro experiments performed in Example 2 in Tilapia and Zebrafish, the inhibition of NKB activity was tested in Salmon fish. Salmon tac3 receptor was cloned in pcDNA3.1 expression vector (Zeo-; Invitrogen) under the control of the CMV promoter. Transfection was carried out with FuGENE 6.0 reagent (Roche). The cells were serum starved for 36 h, stimulated with vehicle or various concentrations of either tilapia NKB for 6 h, and then harvested and analyzed. Lysates prepared from the harvested cells were assayed for both luciferase activity and β-galactosidase activity, which was used as an internal standard to normalize the luciferase activity directed by the test plasmid. Transfection experiments were performed in triplicate with three independently isolated sets. The concentrations of ligand used were from 1 nM to 1 μM. Treatments were performed in quadruplicate in three independent experiments. Each antagonist (NKB-ant 4 and NKB-ant 6) was added at different concentrations with a constant concentration of the wild-type NKB (10^−8M) that gave a response close to the ED50. The results were analyzed by Prism software, according to a non-linear regression one-site competition curve. When salmon tac3 was transfected, NKB increased the luciferase activity by 1.8 fold.

## CC(=O)N(C)C1(c2ccccc2)CCN(CCCC2(c3ccc(Cl)c(Cl)c3)CCCN(C(=O)c3ccccc3)C2)CC1 (stereo in doubt) [Osanetant (SR-142,801), (S)-(1)-N-{{3-[1-benzoyl-3-(3,4-dichlorophenyl)piperidin-3-yl]prop-1-yl}-4-phenylpiperidin-4-yl}-N-methyl acetamide]
[1]
  effect of antagonist alone on luciferase activity (CRE-Luc): no effect
  inhibition of luciferase activity, antagonist with native ligands: typical inhibition curve

## CC[C@H](NC(=O)c1c(C)c(-c2ccccc2)nc2ccccc12)c1ccccc1 [SB222200, (S)-(2)-N-(a-ethylbenzyl)-3-methyl-2-phenylquinoline-4-carboxamide]
Adult male Tilapia [2]
  increase of plasma 11KT levels: significantly inhibited
Adult male Tilapia [3]
  growth (body weight): significant growth
[1]
  effect of antagonist alone on luciferase activity (CRE-Luc): no effect
  inhibition of luciferase activity, antagonist with native ligands: typical inhibition curve
[4]
  FSH levels: significant gradual decline
  LH levels: significant gradual decline

## Succ-Asp-Ile-D-Trp-N(Me)Val-βAla-Leu-Met-NH2 (Suc-DI[dW][NMeV][βAla]LM-NH2; SMILES CC[C@H](C)[C@H](NC(=O)[C@H](CC(=O)O)NC(=O)CCC(=O)O)C(=O)N[C@H](Cc1c[nH]c2ccccc12)C(=O)N(C)[C@H](C(=O)NCCC(=O)N[C@@H](CC(C)C)C(=O)N[C@@H](CCSC)C(N)=O)C(C)C) [Ant-4]
Adult male Tilapia [2]
  increase of plasma 11KT levels: significantly inhibited
Adult male Tilapia [2]; 500 μg/kg BW ip every 48 h for 2 weeks
  histological observations of testes: more partially empty cysts with mature spermatozoa
Salmon tac3 receptor
  reduction of the NKB luciferase response by antagonist: approximately 60%

From patent US10793614B2, “Antagonists of fish reproduction” (Yissum Research Development Company of the Hebrew …, priority 2014, dated 2020)
